In patent US8147838B2, “Peptide” (priority 2005, dated 2012):

Tested on: PBMCs recovered from TroVax treated patients
Assay type: cell-based, human
Conditions: for most likely HLA restriction: from HLA-type frequency among responding patients; for HLA-type distribution among positive proliferative responses: DQ2: responding patients with HLA type DQ2 / all responding patients; for HLA-type distribution among positive proliferative responses: DQ2 / HLA-type distribution among positive proliferative responses: DQ4 / HLA-type distribution among positive proliferative responses: DQ5 / HLA-type distribution among positive proliferative responses: DQ6 / HLA-type distribution among positive proliferative responses: DQ7 / HLA-type distribution among positive proliferative responses: DQ8 / HLA-type distribution among positive proliferative responses: DQ9 / HLA-type distribution among positive proliferative responses: DR1 / HLA-type distribution among positive proliferative responses: DR4 / HLA-type distribution among positive proliferative responses: DR7 / HLA-type distribution among positive proliferative responses: DR8 / HLA-type distribution among positive proliferative responses: DR9 / HLA-type distribution among positive proliferative responses: DR11 / HLA-type distribution among positive proliferative responses: DR13 / HLA-type distribution among positive proliferative responses: DR15 / HLA-type distribution among positive proliferative responses: DR17 / HLA-type distribution among positive proliferative responses: DR51 / HLA-type distribution among positive proliferative responses: DR52 / HLA-type distribution among positive proliferative responses: DR53: PBMCs from TroVax treated patients; for HLA-type distribution among positive proliferative responses: DQ4: responding patients with HLA type DQ4 / all responding patients; for HLA-type distribution among positive proliferative responses: DQ5: responding patients with HLA type DQ5 / all responding patients; for HLA-type distribution among positive proliferative responses: DQ6: responding patients with HLA type DQ6 / all responding patients; for HLA-type distribution among positive proliferative responses: DQ7: responding patients with HLA type DQ7 / all responding patients; for HLA-type distribution among positive proliferative responses: DQ8: responding patients with HLA type DQ8 / all responding patients; for HLA-type distribution among positive proliferative responses: DQ9: responding patients with HLA type DQ9 / all responding patients; for HLA-type distribution among positive proliferative responses: DR1: responding patients with HLA type DR1 / all responding patients; for HLA-type distribution among positive proliferative responses: DR4: responding patients with HLA type DR4 / all responding patients; for HLA-type distribution among positive proliferative responses: DR7: responding patients with HLA type DR7 / all responding patients; for HLA-type distribution among positive proliferative responses: DR8: responding patients with HLA type DR8 / all responding patients; for HLA-type distribution among positive proliferative responses: DR9: responding patients with HLA type DR9 / all responding patients; for HLA-type distribution among positive proliferative responses: DR11: responding patients with HLA type DR11 / all responding patients; for HLA-type distribution among positive proliferative responses: DR13: responding patients with HLA type DR13 / all responding patients; for HLA-type distribution among positive proliferative responses: DR15: responding patients with HLA type DR15 / all responding patients; for HLA-type distribution among positive proliferative responses: DR17: responding patients with HLA type DR17 / all responding patients; for HLA-type distribution among positive proliferative responses: DR51: responding patients with HLA type DR51 / all responding patients; for HLA-type distribution among positive proliferative responses: DR52: responding patients with HLA type DR52 / all responding patients; for HLA-type distribution among positive proliferative responses: DR53: responding patients with HLA type DR53 / all responding patients
[1] = positive proliferative responses

## 42.2: class II 5T4 20 mer peptide (details in Table 12) (MRNRVLLELNSADLDCDPIL) [Peptide 42.2]
  most likely HLA restriction: DQ6, DR51, DQ5, or DR15
  HLA-type distribution among positive proliferative responses: DQ2: 4/12
  HLA-type distribution among positive proliferative responses: DQ4: 0/12
  HLA-type distribution among positive proliferative responses: DQ5: 6/12
  HLA-type distribution among positive proliferative responses: DQ6: 8/12
  HLA-type distribution among positive proliferative responses: DQ7: 0/12
  HLA-type distribution among positive proliferative responses: DQ8: 1/12
  HLA-type distribution among positive proliferative responses: DQ9: 1/12
  HLA-type distribution among positive proliferative responses: DR1: 4/12
  HLA-type distribution among positive proliferative responses: DR4: 1/12
  HLA-type distribution among positive proliferative responses: DR7: 3/12
  HLA-type distribution among positive proliferative responses: DR8: 0/12
  HLA-type distribution among positive proliferative responses: DR9: 0/12
  HLA-type distribution among positive proliferative responses: DR11: 1/12
  HLA-type distribution among positive proliferative responses: DR13: 2/12
  HLA-type distribution among positive proliferative responses: DR15: 6/12
  HLA-type distribution among positive proliferative responses: DR17: 2/12
  HLA-type distribution among positive proliferative responses: DR51: 7/12
  HLA-type distribution among positive proliferative responses: DR52: 5/12
  HLA-type distribution among positive proliferative responses: DR53: 3/12
[1]
  responders with HLA type DQ5 out of all responders: 6 out of 12
  responders with HLA type DQ6 out of all responders: 8 out of 12
  responders with HLA type DR15 out of all responders: 6 out of 12
  responders with HLA type DR51 out of all responders: 7 out of 12

## 36.2: class II 5T4 20 mer peptide (details in Table 12) (LQGLPHIRVFLDNNPWVCDC) [Peptide 36.2]
  most likely HLA restriction: DQ2, DR7, or DR53
  HLA-type distribution among positive proliferative responses: DQ2: 3/7
  HLA-type distribution among positive proliferative responses: DQ4: 0/7
  HLA-type distribution among positive proliferative responses: DQ5: 2/7
  HLA-type distribution among positive proliferative responses: DQ6: 2/7
  HLA-type distribution among positive proliferative responses: DQ7: 2/7
  HLA-type distribution among positive proliferative responses: DQ8: 0/7
  HLA-type distribution among positive proliferative responses: DQ9: 2/7
  HLA-type distribution among positive proliferative responses: DR1: 2/7
  HLA-type distribution among positive proliferative responses: DR4: 1/7
  HLA-type distribution among positive proliferative responses: DR7: 3/7
  HLA-type distribution among positive proliferative responses: DR8: 0/7
  HLA-type distribution among positive proliferative responses: DR9: 1/7
  HLA-type distribution among positive proliferative responses: DR11: 1/7
  HLA-type distribution among positive proliferative responses: DR13: 1/7
  HLA-type distribution among positive proliferative responses: DR15: 2/7
  HLA-type distribution among positive proliferative responses: DR17: 1/7
  HLA-type distribution among positive proliferative responses: DR51: 2/7
  HLA-type distribution among positive proliferative responses: DR52: 2/7
  HLA-type distribution among positive proliferative responses: DR53: 3/7
[1]
  responders with HLA type DQ2 out of all responders: 3 out of 7
  responders with HLA type DR7 out of all responders: 3 out of 7
  responders with HLA type DR53 out of all responders: 3 out of 7

## 45.2: class II 5T4 20 mer peptide (details in Table 12) (MRNRVLLELNSADLDCDPIL) [Peptide 45.2]
  most likely HLA restriction: DQ6, DR53, DR15, or DR51
  HLA-type distribution among positive proliferative responses: DQ2: 3/8
  HLA-type distribution among positive proliferative responses: DQ4: 0/8
  HLA-type distribution among positive proliferative responses: DQ5: 2/8
  HLA-type distribution among positive proliferative responses: DQ6: 5/8
  HLA-type distribution among positive proliferative responses: DQ7: 3/8
  HLA-type distribution among positive proliferative responses: DQ8: 0/8
  HLA-type distribution among positive proliferative responses: DQ9: 0/8
  HLA-type distribution among positive proliferative responses: DR1: 2/8
  HLA-type distribution among positive proliferative responses: DR4: 3/8
  HLA-type distribution among positive proliferative responses: DR7: 2/8
  HLA-type distribution among positive proliferative responses: DR8: 0/8
  HLA-type distribution among positive proliferative responses: DR9: 0/8
  HLA-type distribution among positive proliferative responses: DR11: 0/8
  HLA-type distribution among positive proliferative responses: DR13: 1/8
  HLA-type distribution among positive proliferative responses: DR15: 4/8
  HLA-type distribution among positive proliferative responses: DR17: 1/8
  HLA-type distribution among positive proliferative responses: DR51: 4/8
  HLA-type distribution among positive proliferative responses: DR52: 2/8
  HLA-type distribution among positive proliferative responses: DR53: 5/8
[1]
  responders with HLA type DQ6 out of all responders: 5 out of 8
  responders with HLA type DR15 out of all responders: 4 out of 8
  responders with HLA type DR51 out of all responders: 4 out of 8
  responders with HLA type DR53 out of all responders: 5 out of 8

## 40.2: class II 5T4 20 mer peptide (details in Table 12) (EVVQGKDRLTCAYPEKMRNR) [Peptide 40.2]
  most likely HLA restriction: DQ6, DR15, DR51, or DR52
  HLA-type distribution among positive proliferative responses: DQ2: 5/12
  HLA-type distribution among positive proliferative responses: DQ4: 1/12
  HLA-type distribution among positive proliferative responses: DQ5: 2/12
  HLA-type distribution among positive proliferative responses: DQ6: 8/12
  HLA-type distribution among positive proliferative responses: DQ7: 3/12
  HLA-type distribution among positive proliferative responses: DQ8: 0/12
  HLA-type distribution among positive proliferative responses: DQ9: 2/12
  HLA-type distribution among positive proliferative responses: DR1: 1/12
  HLA-type distribution among positive proliferative responses: DR4: 1/12
  HLA-type distribution among positive proliferative responses: DR7: 3/12
  HLA-type distribution among positive proliferative responses: DR8: 1/12
  HLA-type distribution among positive proliferative responses: DR9: 1/12
  HLA-type distribution among positive proliferative responses: DR11: 1/12
  HLA-type distribution among positive proliferative responses: DR13: 3/12
  HLA-type distribution among positive proliferative responses: DR15: 6/12
  HLA-type distribution among positive proliferative responses: DR17: 3/12
  HLA-type distribution among positive proliferative responses: DR51: 6/12
  HLA-type distribution among positive proliferative responses: DR52: 6/12
  HLA-type distribution among positive proliferative responses: DR53: 4/12
[1]
  responders with HLA type DQ6 out of all responders: 8 out of 12
  responders with HLA type DR15 out of all responders: 6 out of 12
  responders with HLA type DR51 out of all responders: 6 out of 12
  responders with HLA type DR52 out of all responders: 6 out of 12

## 44.2: class II 5T4 20 mer peptide (details in Table 12) (DPILPPSLQTSYVFLGIVLA) [Peptide 44.2]
  most likely HLA restriction: DQ6, DR15, DR51, or DR52
  HLA-type distribution among positive proliferative responses: DQ2: 3/9
  HLA-type distribution among positive proliferative responses: DQ4: 0/9
  HLA-type distribution among positive proliferative responses: DQ5: 3/9
  HLA-type distribution among positive proliferative responses: DQ6: 5/9
  HLA-type distribution among positive proliferative responses: DQ7: 3/9
  HLA-type distribution among positive proliferative responses: DQ8: 0/9
  HLA-type distribution among positive proliferative responses: DQ9: 1/9
  HLA-type distribution among positive proliferative responses: DR1: 2/9
  HLA-type distribution among positive proliferative responses: DR4: 1/9
  HLA-type distribution among positive proliferative responses: DR7: 0/9
  HLA-type distribution among positive proliferative responses: DR8: 0/9
  HLA-type distribution among positive proliferative responses: DR9: 1/9
  HLA-type distribution among positive proliferative responses: DR11: 1/9
  HLA-type distribution among positive proliferative responses: DR13: 1/9
  HLA-type distribution among positive proliferative responses: DR15: 5/9
  HLA-type distribution among positive proliferative responses: DR17: 3/9
  HLA-type distribution among positive proliferative responses: DR51: 5/9
  HLA-type distribution among positive proliferative responses: DR52: 5/9
  HLA-type distribution among positive proliferative responses: DR53: 2/9
[1]
  responders with HLA type DQ6 out of all responders: 5 out of 9
  responders with HLA type DR15 out of all responders: 5 out of 9
  responders with HLA type DR51 out of all responders: 5 out of 9
  responders with HLA type DR52 out of all responders: 5 out of 9
